Reference: patent US11723890B2, “Methods of treatment using an mTORC1 modulator” (Navitor Pharmaceuticals, Inc., priority 2019, dated 2023)
Read-outs that look alike come from different tables or passages of the source.

Experiment: Example 3: plasma pharmacokinetics of two sequential doses
Format: in vivo, human
Settings: for Tmax / AUC / AUC(0-t) / Cmax / half-life: male, human, 2400 mg
Method: Up to approximately 24 healthy male volunteers were randomly assigned (1:1) to double-blind treatment with either compound A 2400 mg or placebo. Each subject received one dose of either 2400 mg compound A or placebo on Day 1 and a second dose of the same treatment on Day 3.
The initial dose of double-blind treatment was administered between 7:00 AM and 10:00 AM on Day 1. The second (Day 3) dose was given 48 hours ±30 minutes following the first (Day 1) dose. Predose assessments were performed up to 120 minutes prior to dosing on Day 1 and Day 3, except for the predose dECG, which was performed within 30 minutes prior to dosing on both Day 1 and Day 3, the predose qEEG and ERP, which was performed within 60 minutes prior to dosing on Day 1 and Day 3, and the predose PK blood draw, which was performed within 15 minutes prior to dosing on Day 3.
Pharmacodynamics were assessed via qEEG and event-related potential (ERP). Frequent PK sampling was included in the study to evaluate the PK of two doses of compound A given approximately 48 hours apart. A PK/PD model was developed that measures qEEG and ERP changes as a function of plasma concentration of compound A as well as determines whether there are any PK/PD differences between Dose 1 and Dose 2 effects.
Subjects were required to refrain from eating or drinking from 2 hours prior to dose administration until two hours after dose administration.

[1] = healthy males, 2400 mg oral, Day 1, N 11
[2] = healthy males, 2400 mg oral, second dose, Day 3, N 11

CC(C)(C[C@H](N)C(=O)O)C(F)F [Compound A, (S)-2-amino-5,5-difluoro-4,4-dimethylpentanoic acid]
accumulation between Day 1 and Day 3 (2400 mg oral 48 hours apart): negligible accumulation
difference in geometric mean exposure (Cmax, AUC(0-24), AUC(0-48)) between Day 1 and Day 3 (2400 mg oral on Days 1 and 3): ≤ 5%
time of peak concentration for the mean profile (2400 mg oral, day 1, post-dose): 1 h
time of highest concentration for the mean profile (2400 mg oral, day 3, post-dose): 0.5 h
mean plasma concentration versus time profiles on days 1 and 3 (FIG. 13): nearly superimposable
AUC(0-24), Max [1]: 416,000 h*ng/mL
AUC(0-24), Min [1]: 298,000 h*ng/mL
AUC(0-48), Max [1]: 525,000 h*ng/mL
AUC(0-48), Min [1]: 357,000 h*ng/mL
AUClast, Max [1]: 481,000 h*ng/mL
AUClast, Min [1]: 298,000 h*ng/mL
Cmax, Max [1]: 57,700 ng/mL
Cmax, Min [1]: 23,300 ng/mL
T1/2, Max [1]: 15.2 h
T1/2, Min [1]: 9.20 h
AUC(0-24), Max [2]: 449,000 h*ng/mL
AUC(0-24), Min [2]: 294,000 h*ng/mL
AUC(0-48), Max [2]: 584,000 h*ng/mL
AUC(0-48), Min [2]: 353,000 h*ng/mL
AUClast, Max [2]: 632,000 h*ng/mL
AUClast, Min [2]: 369,000 h*ng/mL
Cmax, Max [2]: 52,300 ng/mL
Cmax, Min [2]: 35,700 ng/mL
T1/2, Max [2]: 21.1 h
T1/2, Min [2]: 10.9 h
Tmax (oral, all subjects, both dosing days (Days 1 and 3), read-out: individual Tmax values): 0.5 to 1 h
AUC (po, healthy males, 2400 mg oral, Day 1, N 11, read-out: AUC(0-24), Geometric mean): 355 µg·h/mL
AUC (po, healthy males, 2400 mg oral, Day 1, N 11, read-out: AUC(0-24), Mean): 358 µg·h/mL
AUC (po, healthy males, 2400 mg oral, Day 1, N 11, read-out: AUC(0-24), Median): 366 µg·h/mL
AUC (po, healthy males, 2400 mg oral, Day 1, N 11, read-out: AUC(0-48), Geometric mean): 438 µg·h/mL
AUC (po, healthy males, 2400 mg oral, Day 1, N 11, read-out: AUC(0-48), Mean): 442 µg·h/mL
AUC (po, healthy males, 2400 mg oral, Day 1, N 11, read-out: AUC(0-48), Median): 453 µg·h/mL
AUC(0-t) (po, healthy males, 2400 mg oral, Day 1, N 11, read-out: AUClast, Geometric mean): 405 µg·h/mL
AUC(0-t) (po, healthy males, 2400 mg oral, Day 1, N 11, read-out: AUClast, Mean): 409 µg·h/mL
AUC(0-t) (po, healthy males, 2400 mg oral, Day 1, N 11, read-out: AUClast, Median): 422 µg·h/mL
Cmax (po, healthy males, 2400 mg oral, Day 1, N 11, read-out: Cmax, Geometric mean): 43900 ng/mL
Cmax (po, healthy males, 2400 mg oral, Day 1, N 11, read-out: Cmax, Mean): 45100 ng/mL
Cmax (po, healthy males, 2400 mg oral, Day 1, N 11, read-out: Cmax, Median): 47000 ng/mL
half-life (po, healthy males, 2400 mg oral, Day 1, N 11, read-out: T1/2, Geometric mean (converted)): 12.1 h
half-life (po, healthy males, 2400 mg oral, Day 1, N 11, read-out: T1/2, Mean (converted)): 12.2 h
half-life (po, healthy males, 2400 mg oral, Day 1, N 11, read-out: T1/2, Median (converted)): 12 h
Tmax (po, healthy males, 2400 mg oral, Day 1, N 11, read-out: Tmax, Median): 1 h
AUC (po, healthy males, 2400 mg oral, second dose, Day 3, N 11, read-out: AUC(0-24), Geometric mean): 350 µg·h/mL
AUC (po, healthy males, 2400 mg oral, second dose, Day 3, N 11, read-out: AUC(0-24), Mean): 353 µg·h/mL
AUC (po, healthy males, 2400 mg oral, second dose, Day 3, N 11, read-out: AUC(0-24), Median): 340 µg·h/mL
AUC (po, healthy males, 2400 mg oral, second dose, Day 3, N 11, read-out: AUC(0-48), Geometric mean): 430 µg·h/mL
AUC (po, healthy males, 2400 mg oral, second dose, Day 3, N 11, read-out: AUC(0-48), Mean): 436 µg·h/mL
AUC (po, healthy males, 2400 mg oral, second dose, Day 3, N 11, read-out: AUC(0-48), Median): 428 µg·h/mL
AUC(0-t) (po, healthy males, 2400 mg oral, second dose, Day 3, N 11, read-out: AUClast, Geometric mean): 455 µg·h/mL
AUC(0-t) (po, healthy males, 2400 mg oral, second dose, Day 3, N 11, read-out: AUClast, Mean): 462 µg·h/mL
AUC(0-t) (po, healthy males, 2400 mg oral, second dose, Day 3, N 11, read-out: AUClast, Median): 460 µg·h/mL
Cmax (po, healthy males, 2400 mg oral, second dose, Day 3, N 11, read-out: Cmax, Geometric mean): 45300 ng/mL
Cmax (po, healthy males, 2400 mg oral, second dose, Day 3, N 11, read-out: Cmax, Mean): 45600 ng/mL
Cmax (po, healthy males, 2400 mg oral, second dose, Day 3, N 11, read-out: Cmax, Median): 47400 ng/mL
half-life (po, healthy males, 2400 mg oral, second dose, Day 3, N 11, read-out: T1/2, Geometric mean (converted)): 15.3 h
half-life (po, healthy males, 2400 mg oral, second dose, Day 3, N 11, read-out: T1/2, Mean (converted)): 15.6 h
half-life (po, healthy males, 2400 mg oral, second dose, Day 3, N 11, read-out: T1/2, Median (converted)): 15.6 h
Tmax (po, healthy males, 2400 mg oral, second dose, Day 3, N 11, read-out: Tmax, Median): 0.5 h
